These are literature values, as cited in patent US8668932B2 (priority 2003, dated 2014).

Data set [1] concerns neuronal serotonin reuptake.
The test system of data set [2] is neuronal norepinephrine reuptake.
For data set [3], the system named is dopamine reuptake.
The conditions of data set [4]: for elimination half-life (T½): in vivo.
Data set [5] concerns alpha-1 adrenergic receptors.
The test system of data set [6] is monoamine oxidase.
Test in data set [7]: not given
The source holds these as a separate data set.

The test system of data set [8] is histaminergic receptors.

As to `CN(C)CC(c1ccc(O)cc1)C1(O)CCCCC1` (stereo not drawn) [ODV, O-desmethylvenlafaxine], the “inhibition of neuronal serotonin reuptake” value in data set [1] was “potent inhibitors”. Besides, the “inhibition of neuronal norepinephrine reuptake” value in [2] is “potent inhibitors”. Further, in data set [3], the “inhibition of dopamine reuptake” value is reported as “weak inhibitors”. The “elimination half-life (T½)” value in [4] is 11 ± 2 h.
For the compound `COc1ccc(C(CN(C)C)C2(O)CCCCC2)cc1.Cl` (racemic) [venlafaxine, (R/S)-1-[2-(dimethylamino)-1-(4-methoxyphenyl)ethyl]cyclohexanol hydrochloride], the plasma protein binding result was “approximately 30%”. Also, the “inhibition of neuronal norepinephrine reuptake” value in data set [2] is reported as “potent inhibitors”. Also, the “affinity for alpha-1 adrenergic receptors” value in data set [5] was “no significant affinity”. The “inhibition of monoamine oxidase” value in data set [6] was “does not inhibit”. Further, the pKa in [7] is reported as 9.4. For the same compound, the “affinity for histaminergic receptors” value in data set [8] is listed as “no significant affinity”. The “inhibition of dopamine reuptake” value in data set [3] is reported as “weak inhibitors”. In addition, the “elimination half-life (T½)” value in data set [4] was 5 ± 2 h. Moreover, in data set [4] (oral), the absolute bioavailability result was “about 45%”. The “time to steady-state concentrations” value in data set [4] (oral multiple dose therapy) was “three”. Moreover, the “fraction of dose absorbed” value in data set [4] (single oral dose, mass balance studies) is reported as “at least 92%”.
